The results in this text go back to patent publication US20060161221A1, “Activation of calcium-mediated cell functions in cells and tissues, including aggregation of human platelets, by nanosecond pulsed electric fields” (priority 2004, published 2006).

Structures are written as SMILES. “Also recorded” adds a separate entry of the source.

What all share (type): cell-based, human
For test [1], the system named is HL-60 cells. Description: Fura-2 measurement of agonist-induced calcium mobilization with and without BAPTA, media without calcium. An excerpt:
(§1) Cell culture—Non-transformed HL-60 and Jurkat cells were obtained from and cultured as recommended by American Type Culture Collection (ATCC, Rockville, Md.) as previously described (Beebe, S. J., et al. (2002). IEEE Trans. Plasma Sci. 30:1 Part 2, 286-292; Beebe, S. J., et al. (2003). FASEB J. 17, 1493-1495). Cells were removed from log phase growth and suspended in Hanks Balanced Salt Solution (HBSS) in the presence or absence of Ca^2+ and Mg^2+. When calcium was omitted, cells were washed several times in buffer without added calcium. In other experiments, the calcium chelator BAPTA was added to chelate intracellular calcium. Cells were loaded with BAPTA-AM and washed in HBSS before the addition of agonists.
To be certain that BAPTA was able to chelate all intracellular calcium, two agents that mobilize calcium by two different mechanisms were used and the calcium concentration in the cell was directly measured using the fluorescent calcium indicator fura-2. Cells were loaded with Fura2 and BAPTA and tested in media without calcium. The first agonist tested was the purinergic agonist ATP, which leads to the release of intracellular calcium through a phospholipase C— and IP3-mediated mechanism through the IP3 receptor in the endoplasmic reticulum (Berridge, M. J. et al. (1998) Nature 395, 645-648). This is followed by an influx of calcium through store-operated calcium channels in the plasma membrane. […] The second agonist tested was cyclopiazonic acid (CPA), which causes increases in calcium by inhibiting the calcium-ATPase in the endoplasmic reticulum. This pump replenishes the intracellular calcium stores after actions by calcium-mobilizing agents. […] Thus, BAPTA inhibited rapid and transient as well as slow and sustained calcium mobilization by agents that acted on a plasma membrane receptor and an endoplasmic reticulum calcium pump.
(In general: A change in cytosolic calcium serves as a functional read-out for many receptors and channels.)

Test [2] deals with HL-60 cells. The test is described as follows: Caspase activation (z-VAD-FITC, flow cytometry) in nsPEF-exposed, BAPTA-loaded HL-60 cells. As to conditions: pulses at 10, 60 and 300 ns, equalized energy density. How it is done: Experiments with HL-60 cells in the presence and absence of BAPTA cells were carried out as described for Jurkat cells in FIG. 2 (n=4).
as §1, with “Cells were loaded with BAPTA-AM and washed in HBSS before the addition of agonists.” left out
(§2) Determination of caspase activation in vivo—Caspase activity was determined in vivo using a fluorescent-labeled, irreversible caspase inhibitor, VAD-fmk-FITC (Val-Ala-Asp-fluoromethylketone labeled with fluoroisothiocyanate) that is specific for the active site of the enzyme (see Beebe et al., 2003). Briefly, cells were exposed to nsPEF, incubated in the presence of the fluorescent caspase inhibitor for 20 minutes, washed to remove background fluorescence and subjected to flow cytometry. Values are expressed as the geometric mean FITC fluorescence. […]
For orientation: In flow cytometry, cells or beads pass a laser one at a time.

A further test deals with Jurkat cells. Description: Caspase activation (z-VAD-FITC, flow cytometry) in nsPEF-exposed, BAPTA-loaded Jurkat cells. As to conditions: energy density ~1.7 J/cc. How it is done: FIG. 2 describes the effect of intracellular calcium chelation by BAPTA on caspase activation in human Jurkat cells. Jurkat cells were incubated with BAPTA-AM ([…]) in Hanks Balanced salt solution (HBSS) with calcium for 30 minutes and washed in HBSS with calcium. The BAPTA loaded cells were exposed to nsPEF as indicated. The electric fields were adjusted to provide a similar energy density (˜1.7 J/cc) under all conditions. After exposure to nsPEF, the cells were incubated with a cell permeable, irreversible inhibitor of active caspases, z-VAD-FITC for 20 minutes before analysis by flow cytometry (Beebe et al., (2003) FASEB J 17, 1493-1495). The values for caspase activity are expressed as the geometric mean z-VAD-FITC fluorescence determined in 15,000 individual cells. […]
as §2

The test system of test [3] is HL-60 cells. Description: Fluorometric analysis (fura-2) of intracellular free calcium [Ca2+]i in HL-60 cells. As to conditions: for change in [Ca2+]i: 0.1 μM. How it is done:
Cell culture-Non-transformed HL-60 cells were used for this study and were obtained from American Type Culture Collection (ATCC, Rockville, Md.). […] 2 mM CaCl2 was added to this buffer when loading cells with fluorescent indicators unless otherwise stated. In some experiments extracellular calcium was omitted by washing the cells several times in the same physiological buffer without added calcium. […] Post pulse, the cell suspension was removed from the pulsing cuvette and assayed. Fluorometric Analysis of Internal Calcium Response-To analyze the response of a greater number of cells, the fluorescent indicator fura-2 (Molecular Probes, Eugene, Oreg.) was used with a fluorometer. HL-60 cells were incubated with fura-2/AM (2 μM) in the physiological buffer described above containing 2 mM calcium for 45 minutes at 37° C. The cells were then washed and resuspended in calcium-free or calcium-containing buffer at a concentration of 7.7×10^6 cells/ml. […] Pulser® cuvettes could not be used to perform calcium measurements in the fluorometer because of the aluminum plates, which act to block either the excitation light or the emission light depending on the placement of the cuvette in the fluorometer. Therefore, the cells were first placed in the fluorometer cuvette, to obtain a baseline reading, cells were then removed from the fluorometer cuvette with a Pasteur pipette and added to the Pulser® cuvette.

Setting [4] is: cells loaded with Fura2 and BAPTA.

Turning to `Nc1ncnc2c1ncn2[C@@H]1O[C@H](COP(=O)(O)OP(=O)(O)OP(=O)(O)O)[C@@H](O)[C@H]1O` [ATP], in the test with HL-60 cells [1] (absence of BAPTA), the “calcium mobilization (fura-2)” value is “rapid and transient increase”.
Consider `O=C(O)CN(CC(=O)O)c1ccccc1OCCOc1ccccc1N(CC(=O)O)CC(=O)O` [BAPTA], for which the “effect on nsPEF-induced caspase activity” value in the test with HL-60 cells [2] is listed as “did not significantly affect”. In addition, in the test with HL-60 cells [1] (setting [4]), the “effect on ATP-induced calcium mobilization” value is listed as “completely inhibited” and the “effect on CPA-mediated calcium mobilization” value is “completely inhibited”. Further, the “effect on nsPEF-induced caspase activation” value with Jurkat cells (pulses at 10 and 60 ns) is “no significant effect”. In the test on Jurkat cells (pulses with 300 ns durations), the “reduction of nsPEF-induced caspase activity” value is reported as “about 25%”.
`O=c1ccn([C@@H]2O[C@H](COP(=O)(O)OP(=O)(O)OP(=O)(O)O)[C@@H](O)[C@H]2O)c(=O)[nH]1` [UTP]: the “[Ca2+]i on addition of 1.0 mM calcium to treated cells (capacitative calcium entry)” value with HL-60 cells [3] (10 μM UTP in low calcium-containing buffer, then 1.0 mM calcium added) is recorded as “rapid rise”. Also, the “reduction of peak [Ca2+]i effect when added after one 60 ns 15 kV/cm pulse” value in the test on HL-60 cells [3] (10 μM, extracellular calcium deficient, vs UTP added before a pulse) is given as “approximately 60%”. The “increase in [Ca2+]i” value is “approximately 300 nM” with HL-60 cells [3] (10 μM, extracellular calcium present) and “approximately 50 nM” with HL-60 cells [3] (absence of extracellular calcium, transient). Further, the “effect on [Ca2+]i compared with 10 μM” value in the test on HL-60 cells [3] (100 μM, extracellular calcium present) is “did not produce any larger effect”. The “effect on [Ca2+]i as % of that seen with 10 μM UTP” value in the test on HL-60 cells [3] (0.1 M (so in the source), extracellular calcium present) is reported as “approximately 20%”. In addition, the “[Ca2+]i increase by one 15 kV/cm pulse after the agonist, as % of pulse before agonist addition” value in the test with HL-60 cells [3] (extracellular calcium deficient) is listed as “approximately 25%”. In addition, in the test on HL-60 cells [3] (extracellular calcium present), the “reduction of [Ca2+]i increase by one 15 kV/cm pulse given after the agonist” value is listed as “approximately 65%”. Moreover, the “reduction of [Ca2+]i effect when added after one 15 kV/cm pulse” value with HL-60 cells [3] (extracellular calcium present, vs UTP by itself) is “approximately 60%”.
With `COc1ccc([C@@H]2Sc3ccccc3N(CCN(C)C)C(=O)[C@@H]2OC(C)=O)cc1` [diltiazem], the “effect on nsPEF-induced increases in [Ca2+]i” value in the test on HL-60 cells [3] (HL-60 cells) is “no effect”.
Take `C/C=C(/C)C(=O)O[C@H]1C(C)=C2[C@H]([C@@H]1OC(=O)CCCCCCC)[C@@](C)(OC(C)=O)C[C@H](OC(=O)CCC)[C@@]1(O)[C@H]2OC(=O)[C@@]1(C)O` [thapsigargin]: the “[Ca2+]i response when added after one 15 kV/cm pulse” value with HL-60 cells [3] (0.1 μM at approximately 50 seconds, 1 mM extracellular calcium) is listed as “did not increase”. Further, the “change in [Ca2+]i” value in the test with HL-60 cells [3] (extracellular calcium absent) was “smaller and more transient increase”; with HL-60 cells [3] (extracellular calcium present), “prolonged increase; also recorded: gradual and sustained increase”. The “reduction of [Ca2+]i increase by one 15 kV/cm pulse given after the agonist” value with HL-60 cells [3] (extracellular calcium present) is “approximately 85%”.
